We go through 16 molecules from PubChem BioAssay (NCI).

Some test systems named below: OVCAR-3 ovarian; U251 CNS; OVCAR-8 ovarian; K-562 leukemia; OVCAR-4 ovarian; SK-MEL-28 melanoma; SR leukemia; OVCAR-5 ovarian; NCI-H522 lung.
What all share (assay): growth of human tumour cells (NCI), 48 h

Each structure is given as a SMILES string.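 Tested at 5 concentrations; 48 h exposure; 96-well plates; endpoints linearly interpolated, else capped at highest concentration. GI50 is the concentration that inhibits growth by half. TGI denotes the concentration required for complete inhibition of growth.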

As to `CCOC(=O)C[C@@]12CCCNC1(C)CCc1ccccc12` (some centres undefined), the TGI in the assay on OVCAR-3 ovarian, with U251 CNS, in the assay with OVCAR-8 ovarian and with K-562 leukemia was above 100 µM throughout.

For `O=C1C(c2ccccc2)=C(c2ccccc2)[C@H](c2ccccc2)[C@]1(Cc1nnn(-c2ccc([N+](=O)[O-])cc2)c1N1CCOCC1)c1ccccc1`, the TGI in the assay on OVCAR-4 ovarian, in the assay with OVCAR-3 ovarian, in the assay with U251 CNS, in the assay with SK-MEL-28 melanoma, in the assay on OVCAR-8 ovarian and in the assay with K-562 leukemia was above 37.5 µM in each case.

For `Cc1nnc(N=Nc2c(O)[nH]c3ccccc23)n1N`, the TGI with OVCAR-4 ovarian, in the assay with OVCAR-3 ovarian, with SR leukemia, in the assay with OVCAR-5 ovarian, in the assay on U251 CNS and in the assay on NCI-H522 lung was above 100 µM each time. For the same molecule, the TGI in the assay on SK-MEL-28 melanoma, in the assay with OVCAR-8 ovarian and with K-562 leukemia was above 100 µM each time.

As to `COc1ccc(C2NCCc3c2[nH]c2ccccc32)cc1` (centres undefined), the TGI in the assay with OVCAR-3 ovarian is above 100 µM; in the assay on SR leukemia it was 91.5 µM; with OVCAR-5 ovarian it was above 100 µM; in the assay on U251 CNS it was above 100 µM; in the assay with NCI-H522 lung, above 100 µM; with SK-MEL-28 melanoma it was above 100 µM. The TGI with OVCAR-8 ovarian and in the assay on K-562 leukemia was above 100 µM in each case.

In the case of `COC(=O)C1(F)C(=O)NC(=O)NC1OC` (centres undefined), the TGI with OVCAR-4 ovarian, with OVCAR-3 ovarian, in the assay with SR leukemia, with OVCAR-5 ovarian, in the assay with U251 CNS and in the assay with NCI-H522 lung was above 100 µM throughout. Also, the TGI with SK-MEL-28 melanoma, with OVCAR-8 ovarian and with K-562 leukemia was above 100 µM each time.

Turning to `NS(=O)(=O)c1ccc(NC(=O)c2cccn3c(=O)c4ccccc4nc23)cc1`, the TGI in the assay on OVCAR-4 ovarian, in the assay with OVCAR-3 ovarian, in the assay with SR leukemia, with U251 CNS, in the assay with NCI-H522 lung and with SK-MEL-28 melanoma was above 100 µM in each case. For the same molecule, the TGI with OVCAR-8 ovarian and in the assay with K-562 leukemia was above 100 µM each time.

As for `CC(=O)OCCC(O[Si](c1ccccc1)(c1ccccc1)C(C)(C)C)C(C)(C)O` (centres undefined), the TGI in the assay with OVCAR-4 ovarian was above 100 µM; in the assay on OVCAR-3 ovarian, 62.2 µM; in the assay on OVCAR-5 ovarian it was above 100 µM; in the assay with U251 CNS, above 100 µM; in the assay on NCI-H522 lung, 46.8 µM; with SK-MEL-28 melanoma it was above 100 µM. Also, the TGI in the assay with OVCAR-8 ovarian and with K-562 leukemia was above 100 µM throughout.

On to `C/C(=N/NC(=O)CC(=O)N(C(=O)c1ccccc1Cl)c1ccc(C)cc1)c1cc2ccccc2oc1=O`, for which the TGI with OVCAR-4 ovarian, with OVCAR-3 ovarian, in the assay with SR leukemia, in the assay on OVCAR-5 ovarian, in the assay on U251 CNS and with NCI-H522 lung was above 100 µM each time. Further, the TGI with SK-MEL-28 melanoma, with OVCAR-8 ovarian and in the assay with K-562 leukemia was above 100 µM throughout.

With `CC1(C)OC(COCCOCCCCCO)C(COCCOCCCCCO)O1` (centres undefined), the TGI in the assay with OVCAR-4 ovarian, in the assay on OVCAR-3 ovarian, in the assay with SR leukemia, in the assay on OVCAR-5 ovarian, with U251 CNS and in the assay on NCI-H522 lung was above 100 µM each time. For the same molecule, the TGI with SK-MEL-28 melanoma, in the assay on OVCAR-8 ovarian and in the assay with K-562 leukemia was above 100 µM throughout.

As for `Cc1ccccc1NC(=O)C(=O)CC(=O)c1ccc([N+](=O)[O-])cc1`, the TGI in the assay on OVCAR-4 ovarian, with OVCAR-3 ovarian, in the assay on OVCAR-5 ovarian, with U251 CNS, in the assay with SK-MEL-28 melanoma and in the assay with OVCAR-8 ovarian was above 100 µM each time.

For `CC1=C(C(=O)CC(=O)C(=O)NC2C3CC4CC(C3)CC2C4)Sc2ccccc2N1` (centres undefined), the TGI in the assay on OVCAR-4 ovarian, in the assay on OVCAR-3 ovarian, with OVCAR-5 ovarian, with U251 CNS, in the assay on NCI-H522 lung and with SK-MEL-28 melanoma was above 100 µM each time. In addition, the TGI in the assay with OVCAR-8 ovarian and in the assay on K-562 leukemia was above 100 µM in each case.

Turning to `C/C(=N/O)c1ccc2c(c1)C(=NO)c1cc(/C(C)=N/O)ccc1-2`, the TGI with OVCAR-4 ovarian was 30.5 µM; in the assay with OVCAR-3 ovarian, 39.3 µM; in the assay on SR leukemia, above 100 µM; in the assay on OVCAR-5 ovarian, 31.6 µM; in the assay with U251 CNS, 28.6 µM; with NCI-H522 lung, 53.3 µM. For the same molecule, the TGI was 31.7 µM in the assay on SK-MEL-28 melanoma, 32.3 µM in the assay on OVCAR-8 ovarian and above 100 µM in the assay on K-562 leukemia.

On to `CC12OC(C(=O)C13CCC3)C1C(=O)c3ccccc3C(=O)C12` (centres undefined), for which the GI50 with OVCAR-5 ovarian is above 100 µM; with U251 CNS, 55 µM; with NCI-H522 lung, above 100 µM; with SK-MEL-28 melanoma, above 100 µM; in the assay on OVCAR-8 ovarian, 61.8 µM; in the assay on K-562 leukemia it was 58.1 µM. The TGI in the assay with OVCAR-5 ovarian, in the assay with U251 CNS, with NCI-H522 lung, with SK-MEL-28 melanoma, with OVCAR-8 ovarian and in the assay with K-562 leukemia was above 100 µM each time.

Consider `COc1cc([C@H]2c3[nH]c4ccccc4c3C[C@H]3COC(=O)N32)cc(OC)c1O`, for which the TGI in the assay with OVCAR-4 ovarian is above 100 µM; with SR leukemia, 0.285 µM; with OVCAR-5 ovarian it was above 100 µM; in the assay with U251 CNS, 19 µM; in the assay with SK-MEL-28 melanoma, above 80 µM; in the assay on OVCAR-8 ovarian, 63.9 µM. In the assay with K-562 leukemia, the TGI is above 90.3 µM.

As to `COc1cc2cccc(N=Cc3c(Br)ccc(OC)c3OC(C)C)c2cc1OC`, the TGI with OVCAR-4 ovarian, in the assay with OVCAR-3 ovarian, in the assay on OVCAR-5 ovarian, in the assay on U251 CNS, in the assay with NCI-H522 lung and in the assay with SK-MEL-28 melanoma was above 100 µM each time. Also, the TGI in the assay on OVCAR-8 ovarian is above 100 µM; in the assay with K-562 leukemia, 92.9 µM.

On to `C=CC1=CC(C)C[C@]1(O)C(=O)OC` (some centres undefined), for which the GI50 in the assay on OVCAR-4 ovarian, in the assay with OVCAR-3 ovarian, in the assay with OVCAR-5 ovarian, in the assay on U251 CNS, with SK-MEL-28 melanoma and in the assay on OVCAR-8 ovarian was above 100 µM in each case. The GI50 in the assay with K-562 leukemia is above 100 µM. The TGI in the assay on SR leukemia and in the assay with NCI-H522 lung was above 100 µM each time.
